Measurements: ChEMBL document CHEMBL6153104, “Discovery of the first potent ROR1 degrader for the treatment of non-small cell lung cancer” (Eur J Med Chem, 2025)

Legend:
Type in all cases: cell-based
[1] = target: T1, Protein cereblon/Inactive tyrosine-protein kinase transmembrane receptor ROR1 (Homo sapiens) (UniProt Q96SW2+Q01973); assay: PROTAC activity at CRBN/ROR1 in human NCI-H23 cells assessed as induction of ROR1 degradation at 1 uM incubated for 24 hrs by Western blot analysis relative to control
[2] = target: T1, Protein cereblon/Inactive tyrosine-protein kinase transmembrane receptor ROR1 (Homo sapiens); assay: PROTAC activity at CRBN/ROR1 in human NCI-H23 cells assessed as induction of ROR1 degradation at 0.1 uM incubated for 24 hrs by Western blot analysis relative to control
[3] = target: T2, von Hippel-Lindau disease tumor suppressor/Inactive tyrosine-protein kinase transmembrane receptor ROR1 (Homo sapiens, UniProt P40337+Q01973); assay: PROTAC activity at VHL/ROR1 in human NCI-H23 cells assessed as induction of ROR1 degradation at 0.1 uM incubated for 24 hrs by Western blot analysis relative to control
[4] = target: T2, von Hippel-Lindau disease tumor suppressor/Inactive tyrosine-protein kinase transmembrane receptor ROR1; assay: PROTAC activity at VHL/ROR1 in human NCI-H23 cells assessed as induction of ROR1 degradation at 1 uM incubated for 24 hrs by Western blot analysis relative to control

T2 sequence (P40337 whole entry): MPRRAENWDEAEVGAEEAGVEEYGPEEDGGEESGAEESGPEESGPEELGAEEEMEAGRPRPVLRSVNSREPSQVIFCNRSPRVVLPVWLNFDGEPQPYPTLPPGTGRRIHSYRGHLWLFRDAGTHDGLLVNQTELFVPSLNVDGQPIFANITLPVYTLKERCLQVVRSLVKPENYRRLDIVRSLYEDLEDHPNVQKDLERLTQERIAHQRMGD
T2 sequence (Q01973 30-937 partner limits assumed): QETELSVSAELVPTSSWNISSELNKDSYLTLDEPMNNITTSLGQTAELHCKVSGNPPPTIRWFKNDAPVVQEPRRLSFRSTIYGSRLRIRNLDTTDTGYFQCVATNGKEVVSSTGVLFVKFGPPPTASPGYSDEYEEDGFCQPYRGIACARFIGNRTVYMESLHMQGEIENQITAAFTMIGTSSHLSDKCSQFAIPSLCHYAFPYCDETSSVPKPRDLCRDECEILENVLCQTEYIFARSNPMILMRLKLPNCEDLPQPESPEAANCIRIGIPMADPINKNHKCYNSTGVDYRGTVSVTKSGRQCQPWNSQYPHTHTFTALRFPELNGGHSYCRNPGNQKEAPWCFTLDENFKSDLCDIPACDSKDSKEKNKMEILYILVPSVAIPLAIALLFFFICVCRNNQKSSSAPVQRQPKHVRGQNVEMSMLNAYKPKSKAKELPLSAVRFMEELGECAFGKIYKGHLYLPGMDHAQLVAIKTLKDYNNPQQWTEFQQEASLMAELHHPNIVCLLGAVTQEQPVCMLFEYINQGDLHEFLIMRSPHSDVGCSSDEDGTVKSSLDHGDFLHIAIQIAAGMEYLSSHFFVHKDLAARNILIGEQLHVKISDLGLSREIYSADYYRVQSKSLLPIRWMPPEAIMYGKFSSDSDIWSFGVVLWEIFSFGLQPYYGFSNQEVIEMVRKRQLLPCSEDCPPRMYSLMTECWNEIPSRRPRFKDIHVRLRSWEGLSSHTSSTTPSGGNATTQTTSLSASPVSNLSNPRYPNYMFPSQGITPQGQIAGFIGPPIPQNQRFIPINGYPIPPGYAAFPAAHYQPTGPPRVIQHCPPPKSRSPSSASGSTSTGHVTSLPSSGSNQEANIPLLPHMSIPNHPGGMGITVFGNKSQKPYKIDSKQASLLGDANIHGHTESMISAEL
T1 sequence (Q01973 whole entry, looked up): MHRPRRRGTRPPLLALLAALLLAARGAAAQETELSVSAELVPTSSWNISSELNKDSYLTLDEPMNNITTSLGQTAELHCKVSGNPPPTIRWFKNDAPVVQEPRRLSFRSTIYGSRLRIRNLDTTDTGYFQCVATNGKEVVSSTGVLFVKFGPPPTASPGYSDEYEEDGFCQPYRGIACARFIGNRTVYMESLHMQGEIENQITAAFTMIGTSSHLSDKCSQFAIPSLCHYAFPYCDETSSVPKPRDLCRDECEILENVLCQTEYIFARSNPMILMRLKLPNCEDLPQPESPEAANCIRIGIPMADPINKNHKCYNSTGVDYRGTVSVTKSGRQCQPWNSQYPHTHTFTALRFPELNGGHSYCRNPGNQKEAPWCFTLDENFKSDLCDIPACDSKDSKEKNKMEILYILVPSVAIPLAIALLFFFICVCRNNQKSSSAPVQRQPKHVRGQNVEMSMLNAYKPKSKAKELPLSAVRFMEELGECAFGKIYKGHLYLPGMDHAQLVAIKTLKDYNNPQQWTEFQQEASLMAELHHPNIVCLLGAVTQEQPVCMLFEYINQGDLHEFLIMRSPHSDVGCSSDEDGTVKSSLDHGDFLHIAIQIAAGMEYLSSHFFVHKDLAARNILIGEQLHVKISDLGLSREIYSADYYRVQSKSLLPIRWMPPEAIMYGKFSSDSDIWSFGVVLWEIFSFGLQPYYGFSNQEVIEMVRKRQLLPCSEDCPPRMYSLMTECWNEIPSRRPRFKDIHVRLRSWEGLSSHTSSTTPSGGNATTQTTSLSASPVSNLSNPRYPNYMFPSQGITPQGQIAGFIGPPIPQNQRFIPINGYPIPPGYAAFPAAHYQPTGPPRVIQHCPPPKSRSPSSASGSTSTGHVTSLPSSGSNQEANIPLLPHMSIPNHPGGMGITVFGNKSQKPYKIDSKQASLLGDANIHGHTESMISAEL
T1 sequence (Q96SW2 whole entry, looked up): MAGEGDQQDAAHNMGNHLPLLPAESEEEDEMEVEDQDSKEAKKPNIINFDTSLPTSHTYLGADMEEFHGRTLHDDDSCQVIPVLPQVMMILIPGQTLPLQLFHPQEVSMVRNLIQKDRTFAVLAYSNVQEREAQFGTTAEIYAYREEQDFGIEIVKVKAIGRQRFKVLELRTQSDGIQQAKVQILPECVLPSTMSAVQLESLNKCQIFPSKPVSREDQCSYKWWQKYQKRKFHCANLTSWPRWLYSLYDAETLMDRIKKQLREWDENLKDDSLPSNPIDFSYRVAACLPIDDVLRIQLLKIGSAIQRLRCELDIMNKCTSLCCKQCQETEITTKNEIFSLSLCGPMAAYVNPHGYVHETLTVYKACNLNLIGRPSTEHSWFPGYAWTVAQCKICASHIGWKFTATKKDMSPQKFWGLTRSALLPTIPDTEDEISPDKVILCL

Activity [1] [%]	Activity [2] [%]	Activity [3] [%]	Activity [4] [%]	SMILES
73.5	0			CCN1CCC(Nc2c(Br)cnc3[nH]c(-c4ccc(N5CCN(CCOCCOCCOCCNc6ccc7c(c6)C(=O)N(C6CCC(=O)NC6=O)C7=O)CC5)cc4)nc23)CC1 (stereo not drawn)
46.8	11			CCN1CCC(Nc2c(Br)cnc3[nH]c(-c4ccc(N5CCN(C(=O)CCCNc6ccc7c(c6)C(=O)N(C6CCC(=O)NC6=O)C7=O)CC5)cc4)nc23)CC1 (stereo not drawn)
88.7	0			CCN1CCC(Nc2c(Br)cnc3[nH]c(-c4ccc(N5CCN(CCOCCOCCNc6ccc7c(c6)C(=O)N(C6CCC(=O)NC6=O)C7=O)CC5)cc4)nc23)CC1 (stereo not drawn)
0	1.6			CCN1CCC(Nc2c(Br)cnc3[nH]c(-c4ccc(N5CCN(C(=O)CCCCCCCCCNc6ccc7c(c6)C(=O)N(C6CCC(=O)NC6=O)C7=O)CC5)cc4)nc23)CC1 (stereo not drawn)
71	0.8			CCN1CCC(Nc2c(Br)cnc3[nH]c(-c4ccc(N5CCN(C(=O)CNc6ccc7c(c6)C(=O)N(C6CCC(=O)NC6=O)C7=O)CC5)cc4)nc23)CC1 (stereo not drawn)
0	0			CCN1CCC(Nc2c(Br)cnc3[nH]c(-c4ccc(N5CCN(C(=O)COc6ccc7c(c6)C(=O)N(C6CCC(=O)NC6=O)C7=O)CC5)cc4)nc23)CC1 (stereo not drawn)
89.9	37.6			CCN1CCC(Nc2c(Br)cnc3[nH]c(-c4ccc(N5CCN(CCCCCCNc6ccc7c(c6)C(=O)N(C6CCC(=O)NC6=O)C7=O)CC5)cc4)nc23)CC1 (stereo not drawn)
73.3	30.5			CCN1CCC(Nc2c(Br)cnc3[nH]c(-c4ccc(N5CCN(C(=O)CCCCCCCNc6ccc7c(c6)C(=O)N(C6CCC(=O)NC6=O)C7=O)CC5)cc4)nc23)CC1 (stereo not drawn)
96.5	6.1			CCN1CCC(Nc2c(Br)cnc3[nH]c(-c4ccc(N5CCN(CCCCCCNc6cccc7c6C(=O)N(C6CCC(=O)NC6=O)C7=O)CC5)cc4)nc23)CC1 (stereo not drawn)
87.2	35.5			CCN1CCC(Nc2c(Br)cnc3[nH]c(-c4ccc(N5CCN(C(=O)CCCCCNc6ccc7c(c6)C(=O)N(C6CCC(=O)NC6=O)C7=O)CC5)cc4)nc23)CC1 (stereo not drawn)
97.4	23.2			CCN1CCC(Nc2c(Br)cnc3[nH]c(-c4ccc(N5CCN(CCCNc6ccc7c(c6)C(=O)N(C6CCC(=O)NC6=O)C7=O)CC5)cc4)nc23)CC1 (stereo not drawn)
99.3	69.7			CCN1CCC(Nc2c(Br)cnc3[nH]c(-c4ccc(N5CCN(CCNc6cccc7c6C(=O)N(C6CCC(=O)NC6=O)C7=O)CC5)cc4)nc23)CC1 (stereo not drawn)
99.7	76.1			CCN1CCC(Nc2c(Br)cnc3[nH]c(-c4ccc(N5CCN(CCCNc6cccc7c6C(=O)N(C6CCC(=O)NC6=O)C7=O)CC5)cc4)nc23)CC1 (stereo not drawn)
92.7	3.2			CCN1CCC(Nc2c(Br)cnc3[nH]c(-c4ccc(N5CCN(CCNc6ccc7c(c6)C(=O)N(C6CCC(=O)NC6=O)C7=O)CC5)cc4)nc23)CC1 (stereo not drawn)

Continued, compound first:

SMILES	Activity [1] [%]	Activity [2] [%]	Activity [3] [%]	Activity [4] [%]
CCN1CCC(Nc2c(Br)cnc3[nH]c(-c4ccc(N5CCN(C(=O)CCCNc6cccc7c6C(=O)N(C6CCC(=O)NC6=O)C7=O)CC5)cc4)nc23)CC1 (stereo not drawn)	76	6.6		
CCN1CCC(Nc2c(Br)cnc3[nH]c(-c4ccc(N5CCN(C(=O)CCCOc6ccc7c(c6)C(=O)N(C6CCC(=O)NC6=O)C7=O)CC5)cc4)nc23)CC1 (stereo not drawn)	87.3	0		
CCN1CCC(Nc2c(Br)cnc3[nH]c(-c4ccc(N5CCN(CCOCCOCCNc6cccc7c6C(=O)N(C6CCC(=O)NC6=O)C7=O)CC5)cc4)nc23)CC1 (stereo not drawn)	89.6	11.1		
CCN1CCC(Nc2c(Br)cnc3[nH]c(-c4ccc(N5CCN(C(=O)CCCCCCCOc6ccc7c(c6)C(=O)N(C6CCC(=O)NC6=O)C7=O)CC5)cc4)nc23)CC1 (stereo not drawn)	0	0		
CCN1CCC(Nc2c(Br)cnc3[nH]c(-c4ccc(N5CCN(C(=O)CCCCCCCOc6cccc7c6C(=O)N(C6CCC(=O)NC6=O)C7=O)CC5)cc4)nc23)CC1 (stereo not drawn)	0	9.5		
CCN1CCC(Nc2c(Br)cnc3[nH]c(-c4ccc(N5CCN(CCCCCCCC(=O)N[C@H](C(=O)N6C[C@H](O)C[C@H]6C(=O)NCc6ccc(-c7scnc7C)cc6)C(C)(C)C)CC5)cc4)nc23)CC1			52.5	99.6
CCN1CCC(Nc2c(Br)cnc3[nH]c(-c4ccc(N5CCN(C(=O)CNc6cccc7c6C(=O)N(C6CCC(=O)NC6=O)C7=O)CC5)cc4)nc23)CC1 (stereo not drawn)	83.3	0		
CCN1CCC(Nc2c(Br)cnc3[nH]c(-c4ccc(N5CCN(C(=O)CCCCC(=O)N[C@H](C(=O)N6C[C@H](O)C[C@H]6C(=O)NCc6ccc(-c7scnc7C)cc6)C(C)(C)C)CC5)cc4)nc23)CC1			12.9	35.3
CCN1CCC(Nc2c(Br)cnc3[nH]c(-c4ccc(N5CCN(CCOCCOCCOCCNc6cccc7c6C(=O)N(C6CCC(=O)NC6=O)C7=O)CC5)cc4)nc23)CC1 (stereo not drawn)	93.8	30.4		
CCN1CCC(Nc2c(Br)cnc3[nH]c(-c4ccc(N5CCN(C(=O)CCCCCNc6cccc7c6C(=O)N(C6CCC(=O)NC6=O)C7=O)CC5)cc4)nc23)CC1 (stereo not drawn)	75.8	6.2		
CCN1CCC(Nc2c(Br)cnc3[nH]c(-c4ccc(N5CCN(C(=O)CCC(=O)N[C@H](C(=O)N6C[C@H](O)C[C@H]6C(=O)NCc6ccc(-c7scnc7C)cc6)C(C)(C)C)CC5)cc4)nc23)CC1			32.5	85.8
CCN1CCC(Nc2c(Br)cnc3[nH]c(-c4ccc(N5CCN(CCCC(=O)N[C@H](C(=O)N6C[C@H](O)C[C@H]6C(=O)NCc6ccc(-c7scnc7C)cc6)C(C)(C)C)CC5)cc4)nc23)CC1			22.6	23.6
CCN1CCC(Nc2c(Br)cnc3[nH]c(-c4ccc(N5CCN(C(=O)CCCCCCCCCNc6cccc7c6C(=O)N(C6CCC(=O)NC6=O)C7=O)CC5)cc4)nc23)CC1 (stereo not drawn)	57.5	6.7		
CCN1CCC(Nc2c(Br)cnc3[nH]c(-c4ccc(N5CCN(CCCCCCCCCC(=O)N[C@H](C(=O)N6C[C@H](O)C[C@H]6C(=O)NCc6ccc(-c7scnc7C)cc6)C(C)(C)C)CC5)cc4)nc23)CC1			28.1	88.4
CCN1CCC(Nc2c(Br)cnc3[nH]c(-c4ccc(N5CCN(C(=O)CCCCCOc6ccc7c(c6)C(=O)N(C6CCC(=O)NC6=O)C7=O)CC5)cc4)nc23)CC1 (stereo not drawn)	0	0		
CCN1CCC(Nc2c(Br)cnc3[nH]c(-c4ccc(N5CCN(C(=O)CCCCCCCCCOc6cccc7c6C(=O)N(C6CCC(=O)NC6=O)C7=O)CC5)cc4)nc23)CC1 (stereo not drawn)	99.6	38.7		
CCN1CCC(Nc2c(Br)cnc3[nH]c(-c4ccc(N5CCN(C(=O)CCCCCCCNc6cccc7c6C(=O)N(C6CCC(=O)NC6=O)C7=O)CC5)cc4)nc23)CC1 (stereo not drawn)	75.3	1.2		
CCN1CCC(Nc2c(Br)cnc3[nH]c(-c4ccc(N5CCN(CC(=O)N[C@H](C(=O)N6C[C@H](O)C[C@H]6C(=O)NCc6ccc(-c7scnc7C)cc6)C(C)(C)C)CC5)cc4)nc23)CC1			10.2	46.2
CCN1CCC(Nc2c(Br)cnc3[nH]c(-c4ccc(N5CCN(C(=O)COc6cccc7c6C(=O)N(C6CCC(=O)NC6=O)C7=O)CC5)cc4)nc23)CC1 (stereo not drawn)	88.9	38		
CCN1CCC(Nc2c(Br)cnc3[nH]c(-c4ccc(N5CCN(C(=O)CCCOc6cccc7c6C(=O)N(C6CCC(=O)NC6=O)C7=O)CC5)cc4)nc23)CC1 (stereo not drawn)	50.6	0		
CCN1CCC(Nc2c(Br)cnc3[nH]c(-c4ccc(N5CCN(C(=O)CCCCCCCCCOc6ccc7c(c6)C(=O)N(C6CCC(=O)NC6=O)C7=O)CC5)cc4)nc23)CC1 (stereo not drawn)	60.5	0		
CCN1CCC(Nc2c(Br)cnc3[nH]c(-c4ccc(N5CCN(C(=O)CCCCCOc6cccc7c6C(=O)N(C6CCC(=O)NC6=O)C7=O)CC5)cc4)nc23)CC1 (stereo not drawn)	0	0		
CCN1CCC(Nc2c(Br)cnc3[nH]c(-c4ccc(N5CCN(C(=O)CCCCCCC(=O)N[C@H](C(=O)N6C[C@H](O)C[C@H]6C(=O)NCc6ccc(-c7scnc7C)cc6)C(C)(C)C)CC5)cc4)nc23)CC1			36.5	84.1
CCN1CCC(Nc2c(Br)cnc3[nH]c(-c4ccc(N5CCN(CCCCCC(=O)N[C@H](C(=O)N6C[C@H](O)C[C@H]6C(=O)NCc6ccc(-c7scnc7C)cc6)C(C)(C)C)CC5)cc4)nc23)CC1			29.3	78.5
CCN1CCC(Nc2c(Br)cnc3[nH]c(-c4ccc(N5CCN(C(=O)CCCCCCCCCCC(=O)N[C@H](C(=O)N6C[C@H](O)C[C@H]6C(=O)NCc6ccc(-c7scnc7C)cc6)C(C)(C)C)CC5)cc4)nc23)CC1			85.1	99.7
